Measured values reported in ChEMBL document CHEMBL2074390, “Vectorial transport of bile salts across MDCK cells expressing both rat Na+-taurocholate cotransporting polypeptide and rat bile salt export pump” (Am J Physiol Gastrointest Liver Physiol, 2004).

Tested on: MDCK
Description: TP_TRANSPORTER: transepithelial transport (basal to apical) in Ntcp/Bsep double transfected MDCK cell

Work on `C[C@H](CCC(=O)NCCS(=O)(=O)O)[C@H]1CC[C@H]2[C@@H]3[C@H](O)C[C@@H]4C[C@H](O)CC[C@]4(C)[C@H]3C[C@H](O)[C@]12C` yielded a Km of 22.2 µM.
